The target of this experiment is T1, glycine-binding site of the NMDA receptor channel (Rattus norvegicus, UniProt P35439).
T1 construct: from tissue; host or cells: rat brain cortex and hippocampus membrane homogenate (male Wistar rats, Charles River)
In words: Receptor binding test, displacement of (3H)-MDL 105.519 on rat brain membrane homogenates. Conditions: rat cortex and hippocampus membrane homogenate; for inhibition at 10 µM: (3H)-MDL 105.519; for Ki: 1 nmol/l (3H)-MDL 105.519, IC50 converted using Cheng-Prusoff equation. On the procedure:
The investigations for determining the affinity of the γ-lactone compounds of the general formula I according to the invention for the glycine-binding site of the NMDA receptor channel were performed on brain membrane homogenates (homogenate of cortex and hippocampus area from the brain of male rats, Wistar strain, Charles River, WIGA GmbH, Sulzbach, Germany), as described in B. M. Baron et al., Journal of Pharmacology and Experimental Therapeutics, vol. 279, pages 62-68, 1996. The corresponding literature description is hereby introduced as a reference and is deemed to be part of the disclosure.
To this end, the cortex and hippocampus were dissected out of freshly harvested rat brains and homogenised with ice cooling in 5 mmol/l of TRIS-acetate buffer, 0.32 mol/l of sucrose, pH 7.4 (10 ml/g fresh weight) using a Potter homogeniser (Braun, Melsungen, Germany, 10 piston strokes at 500 revolutions per minute (rpm)) and then centrifuged for 10 minutes at 1,000 g and 4° C. The first supernatant was collected and the sediment again homogenised with ice cooling with 5 mmol/l of TRIS-acetate buffer, 0,32 mol/l of sucrose, pH 7.4 (5 ml/g of original fresh weight of rat cerebral cortex and hippocampus) with the Potter homogeniser (10 piston strokes at 500 rpm) and centrifuged for 10 minutes at 1,000 g and 4° C. The resultant supernatant was combined with the supernatant from the first centrifugation and centrifuged at 17,000 g for 20 minutes at 4° C. The supernatant after this centrifugation was discarded and the membrane sediment was resuspended with 5 mmol/l of TRIS-acetate buffer, pH 8.0 (20 ml/g of original fresh weight) and homogenised with 10 piston strokes at 500 rpm.
The membrane homogenate was then incubated for 1 hour at 4° C. and centrifuged for 30 minutes at 50,000 g and 4° C. The supernatant was discarded and the centrifuge tubes containing the membrane sediment were sealed with Parafilm and frozen for 24 hours at −20° C. On the following day, the membrane sediment was thawed and resuspended with ice-cold 5 mmol/l TRIS-acetate buffer, 0,1% saponin (wt./vol.), pH 7.0 (10 ml/g of original fresh weight) and homogenised with 10 piston strokes at 500 rpm and then centrifuged for 20 minutes at 50,000 g and 4° C. The resultant supernatant was discarded and the sediment resuspended in a small volume with 5 mmol/l of TRIS-acetate buffer, pH 7.0 (approx. 2 ml/g of original fresh weight) and again homogenised with 10 piston strokes at 500 rpm. After determination of the protein content, the membrane homogenate was adjusted with 5 mmol/l TRIS-acetate buffer, pH 7.0, to a protein concentration of 10 mg of protein/ml and frozen in aliquots until used for testing.
The receptor binding test was performed by thawing aliquots, diluting them 1:10 with 5 mmol/l TRIS-acetate buffer, pH 7.0, homogenising them with ice-cooling with 10 piston strokes at 500 rpm with the Potter homogeniser and centrifuging them for 60 minutes at 55,000 g at 4° C. The supernatant was decanted and the membrane sediment adjusted with ice-cold 50 mmol/l TRIS-acetate buffer, pH 7.0, to a protein concentration of 1 mg/ml and again homogenised with 10 piston strokes at 500 rpm and kept in suspension in an ice bath with stirring on a magnetic stirrer. This membrane homogenate was used in the receptor binding test in a quantity of 100 μl per 1 ml batch (0.1 mg of protein/ml in the final batch).
In the binding test, 50 mmol/l TRIS-acetate buffer pH 7.0 was used as the buffer and 1 nmol/l of (^3H)-MDL 105.519 was used as the radioactive ligand, as described in the above-stated literature reference by B. M. Baron et al. The level of non-specific binding was determined in the presence of 1 mmol/l of glycine.
In further batches, the compounds of the general formula I according to the invention were added in concentration series and the displacement of the radioactive ligand from its specific binding at the glycine-binding site of the NMDA receptor channel was determined. […]

The molecule `CC1(c2ccc(Cl)cc2)CC(Nc2cc(Cl)cc(Cl)c2)C(=O)O1` (stereo not shown) [Example 25, 5-(4-Chloro-phenyl)-3-(3,5-dichloro-phenylamino)-5-methyl-dihydro-furan-2-one] returned an inhibition at 10 µM of 71% and a Ki of 1300 nM. On to `CC1(c2ccccc2)CC(Nc2cc(Cl)cc(Cl)c2)C(=O)O1` (stereo not shown) [Example 12, 3-(3,5-Dichloro-phenylamino)-5-methyl-5-phenyl-dihydro-furan-2-one], for which the inhibition at 10 µM stood at 80% and the affinity corresponds to a Ki of 800 nM.

Regarding `CC1(c2ccc(F)cc2)CC(Nc2cc(Cl)cc(Cl)c2)C(=O)O1` (stereo not shown) [Example 13, 3-(3,5-Dichloro-phenylamino)-5-(4-fluoro-phenyl)-5-methyl-dihydro-furan-2-one], 10 µM produced 70% inhibition and the Ki came out at 800 nM.

For the molecule `CCCCC1(c2ccccc2)CC(Nc2cc(Cl)cc(Cl)c2)C(=O)O1` (stereo not shown) [Example 108, 5-n-Butyl-3-(3,5-dichlorophenylamino)-5-phenyl-dihydrofuran-2-one], testing at 10 µM gave an inhibition of 62%.

These data come from US6956055B2, “Substituted γ-lactone compounds as NMDA-antagonists” (Grunenthal GmbH, priority 2001, dated 2005).
